Data reported in paper PMC9076611, “Ataluren binds to multiple protein synthesis apparatus sites and competitively inhibits release factor-dependent termination” (Nature Communications, 2022).

How the values were obtained:
eRF1 [1] = target: T1, eRF1 (Saccharomyces cerevisiae, UniProt P12385); assay: photoaffinity labeling with [3H]-AzAt, saturation curve on isolated eRF1 (SDS-PAGE gel slice radioactivity); format: binding
T1 construct: gene SUP45; Full-length S. cerevisiae eRF1
From the text: photoaffinity labeling with [3H]-AzAt, saturation curve on isolated eRF1 (SDS-PAGE gel slice radioactivity) on eRF1 | Photoincorporation into isolated eRF1 as a function of AzAt concentration results in a simple hyperbolic saturation curve

eRF1 [2] = target: T1, eRF1; assay: competition with [3H]-AzAt photoaffinity labeling of isolated eRF1 ([…] ataluren vs […] AzAt); format: binding

T1 sequence (P12385 whole entry): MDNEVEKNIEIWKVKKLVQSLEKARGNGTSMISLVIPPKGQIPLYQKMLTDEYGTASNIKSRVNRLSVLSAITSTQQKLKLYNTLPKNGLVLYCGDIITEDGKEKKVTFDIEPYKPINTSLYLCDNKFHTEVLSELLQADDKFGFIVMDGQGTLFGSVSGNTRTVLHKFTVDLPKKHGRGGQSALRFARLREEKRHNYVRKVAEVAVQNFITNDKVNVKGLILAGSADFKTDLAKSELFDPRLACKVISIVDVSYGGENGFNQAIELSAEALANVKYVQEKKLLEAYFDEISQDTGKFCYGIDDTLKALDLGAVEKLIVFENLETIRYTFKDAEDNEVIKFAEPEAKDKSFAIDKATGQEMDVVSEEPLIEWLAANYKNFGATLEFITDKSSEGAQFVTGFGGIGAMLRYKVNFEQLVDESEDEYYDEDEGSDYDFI

EC50 (eRF1 [1])	Compound	competition with [3H]-AzAt photoaffinity labeling of isolated eRF1 (1000 μM atal) (eRF1 [2])
110 ± 20 µM	[N-]=[N+]=Nc1ccc(-c2nc(-c3cccc(C(=O)O)c3)no2)cc1 [AzAt, 3-(5-(4-azidophenyl)-1,2,4-oxadiazol-3-yl) benzoic acid]	–
–	O=C(O)c1cccc(-c2noc(-c3ccccc3F)n2)c1 [ataluren]	both ataluren and GJ072, an ataluren-like TRID, substantially inhibit AzAt photoincorporation into isolated eRF1
